Some test systems named below: CAKI-1 renal; CCRF-CEM leukemia; 786-0 renal; NCI-H23 lung; RPMI-8226 leukemia; SK-MEL-5 melanoma; IGROV1 ovarian; SF-268 CNS; SNB-19 CNS; A498 renal.
What all share (test): inhibition of tumour cell growth, NCI panel, 48 h

These results are taken from PubChem BioAssay (NCI).

Structures are written as SMILES.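 Tested at 5 concentrations; 48 h exposure; 96-well plates; endpoints linearly interpolated, else capped at highest concentration. GI50 marks 50% less growth. TGI denotes the concentration required for complete inhibition of growth.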

`CC(=O)NC1=C(Sc2ccc(Cl)cc2)C(=O)c2ccccc2C1=O`: the TGI with CAKI-1 renal was found to be 14.6 µM; in the assay on CCRF-CEM leukemia, 4.64 µM; in the assay on 786-0 renal it was 4.16 µM; with NCI-H23 lung, 37 µM; in the assay on RPMI-8226 leukemia it was 3.65 µM; in the assay with SK-MEL-5 melanoma it was 4.8 µM. The TGI is 17.1 µM with IGROV1 ovarian, 8.41 µM in the assay on SF-268 CNS, 28.6 µM in the assay on SNB-19 CNS and 16.4 µM in the assay on A498 renal.
As for `CCN(CC)c1ccc(/C=C/C=C(/C#N)C(N)=S)cc1`, the GI50 in the assay with CAKI-1 renal was 31.8 µM; with CCRF-CEM leukemia it was 3.16 µM; in the assay with 786-0 renal, 2.76 µM; in the assay on NCI-H23 lung it was 8.45 µM; with RPMI-8226 leukemia, 2.14 µM; with SK-MEL-5 melanoma, 5.96 µM. In addition, the GI50 is 17.9 µM in the assay with IGROV1 ovarian, 30.2 µM in the assay with SF-268 CNS, 40.4 µM with SNB-19 CNS and 10.9 µM with A498 renal. Moreover, the TGI in the assay on CAKI-1 renal was above 100 µM; with CCRF-CEM leukemia it was 71.8 µM; in the assay with 786-0 renal it was 8.69 µM; in the assay on NCI-H23 lung it was above 100 µM; in the assay with RPMI-8226 leukemia it was 7.88 µM; in the assay on SK-MEL-5 melanoma it was above 100 µM. Further, the TGI in the assay on IGROV1 ovarian is above 100 µM; in the assay on SF-268 CNS, above 100 µM; in the assay on SNB-19 CNS, above 100 µM; in the assay on A498 renal, 58.9 µM.
As to `CCOC(=O)c1nc2cc(C(F)(F)F)ccc2[n+]([O-])c1C`, the GI50 with CAKI-1 renal was above 100 µM; with CCRF-CEM leukemia, 0.159 µM; in the assay on 786-0 renal, above 100 µM; in the assay with NCI-H23 lung it was above 100 µM; with RPMI-8226 leukemia it was above 100 µM; in the assay on SK-MEL-5 melanoma it was above 100 µM. The GI50 in the assay with IGROV1 ovarian, with SF-268 CNS, in the assay with SNB-19 CNS and with A498 renal was above 100 µM each time. Further, the TGI in the assay on CAKI-1 renal is above 100 µM; with CCRF-CEM leukemia it was 0.533 µM; in the assay with 786-0 renal, above 100 µM; with NCI-H23 lung, above 100 µM; with RPMI-8226 leukemia it was above 100 µM; in the assay on SK-MEL-5 melanoma it was above 100 µM. Moreover, the TGI in the assay with IGROV1 ovarian, in the assay on SF-268 CNS, in the assay on SNB-19 CNS and in the assay on A498 renal was above 100 µM in each case.
Consider `CC/C=C\C[C@H](O)C/C=C1/C(=O)C=C[C@@H]1C/C=C\CCCC(=O)NC`, for which the GI50 was 1.38 µM in the assay on CAKI-1 renal; 1.47 µM in the assay with CCRF-CEM leukemia; 1.81 µM in the assay with 786-0 renal; 1.82 µM in the assay with NCI-H23 lung; 0.957 µM in the assay with RPMI-8226 leukemia; 1.62 µM in the assay with SK-MEL-5 melanoma. For the same compound, the GI50 is 2.93 µM with IGROV1 ovarian, 2.94 µM with SF-268 CNS, 6.91 µM in the assay on SNB-19 CNS and 2.34 µM in the assay with A498 renal. Also, the TGI in the assay with CAKI-1 renal worked out at 4.08 µM; in the assay with CCRF-CEM leukemia, 8.13 µM; in the assay on 786-0 renal, 3.6 µM; with NCI-H23 lung, 4.22 µM; in the assay with RPMI-8226 leukemia, 6 µM; in the assay with SK-MEL-5 melanoma, 2.98 µM. Also, the TGI came to 10.7 µM with IGROV1 ovarian, 12.9 µM in the assay on SF-268 CNS, 20.9 µM in the assay on SNB-19 CNS and 5.12 µM in the assay with A498 renal.
On to `CN(C)c1ccc(/C=N/NC(=O)c2cccc3ccccc23)c(Cl)c1`, for which the GI50 in the assay on CAKI-1 renal was 0.527 µM; with CCRF-CEM leukemia, 0.581 µM; in the assay on 786-0 renal, 5.87 µM; in the assay on NCI-H23 lung, 7.51 µM; in the assay on RPMI-8226 leukemia it was 2.19 µM; in the assay with SK-MEL-5 melanoma, 0.922 µM. The GI50 in the assay on IGROV1 ovarian was 3.44 µM; in the assay with SF-268 CNS it was 9.1 µM; with SNB-19 CNS it was 15.5 µM; in the assay on A498 renal it was 0.422 µM. In addition, the TGI in the assay with CAKI-1 renal was 8.04 µM; with CCRF-CEM leukemia it was above 100 µM; in the assay on 786-0 renal, above 100 µM; in the assay with NCI-H23 lung, above 100 µM; with RPMI-8226 leukemia, above 100 µM; with SK-MEL-5 melanoma, 24.1 µM. Further, the TGI in the assay on IGROV1 ovarian is above 100 µM; in the assay with SF-268 CNS, above 100 µM; in the assay with SNB-19 CNS, above 100 µM; in the assay on A498 renal it was 6.26 µM.
Regarding `COc1cc2c(cc1O)C(c1cc(O)c(O)c(OC)c1)C(O)(C(=O)O)C(CO)C2O` (stereo not given), the TGI is above 100 µM with CAKI-1 renal; 22.7 µM with CCRF-CEM leukemia; 30.5 µM in the assay with 786-0 renal; above 100 µM in the assay with NCI-H23 lung; above 100 µM in the assay with RPMI-8226 leukemia; above 100 µM with SK-MEL-5 melanoma. The TGI with IGROV1 ovarian, in the assay with SF-268 CNS, in the assay on SNB-19 CNS and in the assay with A498 renal was above 100 µM each time.
For the compound `Cc1cn2c(/C=N/N=C(N)N)c(-c3ccsc3)nc2s1`, the GI50 in the assay with CAKI-1 renal is 17.4 µM; with CCRF-CEM leukemia, 2.54 µM; in the assay with 786-0 renal, 5.89 µM; in the assay on NCI-H23 lung, 15.8 µM; in the assay on RPMI-8226 leukemia, 3.69 µM; in the assay on SK-MEL-5 melanoma it was 2.71 µM. For the same compound, the GI50 was 14.9 µM in the assay with IGROV1 ovarian, 14.6 µM in the assay with SF-268 CNS, 7.31 µM in the assay with SNB-19 CNS and 28.3 µM with A498 renal. In addition, the TGI in the assay on CAKI-1 renal was 32.7 µM; in the assay on CCRF-CEM leukemia, 6.21 µM; in the assay with 786-0 renal, 19.7 µM; in the assay with NCI-H23 lung, 30.5 µM; with RPMI-8226 leukemia it was 16 µM; in the assay with SK-MEL-5 melanoma it was 5.19 µM. In addition, the TGI with IGROV1 ovarian turned out to be 46.3 µM; in the assay on SF-268 CNS it was 44.3 µM; in the assay with SNB-19 CNS, 23.7 µM; with A498 renal, 43.3 µM.
As for `CN1CCN(c2ccc(C(=O)Nc3cccc(C#Cc4cccc5[nH]nc(N)c45)c3)cc2C(F)(F)F)CC1`, the GI50 with CAKI-1 renal was 0.668 µM; in the assay on CCRF-CEM leukemia, 1.16 µM; in the assay on 786-0 renal, 2.05 µM; in the assay on NCI-H23 lung, 1.79 µM; in the assay with RPMI-8226 leukemia it was 1.45 µM; in the assay on SK-MEL-5 melanoma it was 2.16 µM. The GI50 in the assay with IGROV1 ovarian was 0.716 µM; in the assay with SF-268 CNS, 1.21 µM; in the assay with SNB-19 CNS, 1.68 µM; in the assay with A498 renal, 2.22 µM. For the same compound, the TGI was found to be 1.51 µM in the assay on CAKI-1 renal; 4.6 µM with CCRF-CEM leukemia; 5.04 µM in the assay with 786-0 renal; 6.12 µM in the assay on NCI-H23 lung; 4.06 µM in the assay with RPMI-8226 leukemia; 6.34 µM with SK-MEL-5 melanoma. Moreover, the TGI in the assay on IGROV1 ovarian turned out to be 1.92 µM; in the assay on SF-268 CNS, 4.85 µM; in the assay with SNB-19 CNS, 4.92 µM; with A498 renal, 6.76 µM.
